Data published in paper PMC9814779, “A triple farnesoid X receptor and peroxisome proliferator-activated receptor α/δ activator reverses hepatic fibrosis in diet-induced NASH in mice” (Communications Chemistry, 2020).
Like-named read-outs stand apart in the source and are kept apart here.

Columns and labels:
Format in all cases: cell-based
Set-up in all cases: Emax: dose or concentration left out as unconfirmed
[1] = molecular target: T1, human PPARα ligand-binding domain (Gal4 chimera) (Homo sapiens, UniProt Q07869); assay: Gal4 hybrid reporter gene assay, PPARα; settings: for EC50: mean ± SEM
T1 construct: coding for the hinge region and LBD of the canonical isoform of the respective nuclear receptor; expressed in transfected cells; host or cells: HEK293T
T1 sequence (Q07869 239-466 limits assumed): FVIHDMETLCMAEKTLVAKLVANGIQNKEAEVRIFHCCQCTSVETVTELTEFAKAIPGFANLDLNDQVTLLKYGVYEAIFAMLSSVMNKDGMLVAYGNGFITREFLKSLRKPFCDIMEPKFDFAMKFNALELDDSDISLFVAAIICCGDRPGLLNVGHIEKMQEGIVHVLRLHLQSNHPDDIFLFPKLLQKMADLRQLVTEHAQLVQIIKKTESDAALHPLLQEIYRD

[2] = molecular target: T2, human PPARδ ligand-binding domain (Gal4 chimera) (Homo sapiens, UniProt Q03181); assay: Gal4 hybrid reporter gene assay, PPARδ; settings: for EC50: mean ± SEM
T2 construct: coding for the hinge region and LBD of the canonical isoform of the respective nuclear receptor; expressed in transfected cells; host or cells: HEK293T
T2 sequence (Q03181 211-439 limits assumed): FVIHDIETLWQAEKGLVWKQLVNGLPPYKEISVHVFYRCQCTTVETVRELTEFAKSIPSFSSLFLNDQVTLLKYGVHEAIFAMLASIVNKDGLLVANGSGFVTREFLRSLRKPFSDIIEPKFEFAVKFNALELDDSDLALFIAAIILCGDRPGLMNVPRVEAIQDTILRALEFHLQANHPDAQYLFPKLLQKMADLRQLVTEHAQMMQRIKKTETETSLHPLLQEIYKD

[3] = molecular target: T3, human PPARγ ligand-binding domain (Gal4 chimera) (Homo sapiens, UniProt P37231); assay: Gal4 hybrid reporter gene assay, PPARγ
T3 construct: coding for the hinge region and LBD of the canonical isoform of the respective nuclear receptor; expressed in transfected cells; host or cells: HEK293T
T3 sequence (P37231 238-503 limits assumed): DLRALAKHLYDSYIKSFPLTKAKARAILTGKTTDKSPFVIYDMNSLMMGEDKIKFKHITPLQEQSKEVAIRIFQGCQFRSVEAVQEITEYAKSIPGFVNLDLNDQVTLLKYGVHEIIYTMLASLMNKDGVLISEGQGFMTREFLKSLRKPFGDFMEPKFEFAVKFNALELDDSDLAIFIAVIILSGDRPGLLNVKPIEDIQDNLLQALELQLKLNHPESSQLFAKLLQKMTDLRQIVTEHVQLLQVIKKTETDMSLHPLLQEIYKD

[4] = molecular target: T4, human FXR:retinoid X receptor (RXR) heterodimer (Homo sapiens, UniProt Q96RI1); assay: Full-length FXR reporter gene assay (BSEP response element) in HeLa cells; settings: for Emax: read-out: max. rel. act. FXR; for EC50: mean ± SEM; for FXR max. rel. act.: Supplementary Table 1, relative to GW4064 at 3 µM
T4 construct: pcDNA3-hFXR[32] and pSG5-hRXR[33] served for receptor overexpression in the full-length FXR assay; expressed in transfected cells; host or cells: HeLa
T4 sequence (P19793 whole entry): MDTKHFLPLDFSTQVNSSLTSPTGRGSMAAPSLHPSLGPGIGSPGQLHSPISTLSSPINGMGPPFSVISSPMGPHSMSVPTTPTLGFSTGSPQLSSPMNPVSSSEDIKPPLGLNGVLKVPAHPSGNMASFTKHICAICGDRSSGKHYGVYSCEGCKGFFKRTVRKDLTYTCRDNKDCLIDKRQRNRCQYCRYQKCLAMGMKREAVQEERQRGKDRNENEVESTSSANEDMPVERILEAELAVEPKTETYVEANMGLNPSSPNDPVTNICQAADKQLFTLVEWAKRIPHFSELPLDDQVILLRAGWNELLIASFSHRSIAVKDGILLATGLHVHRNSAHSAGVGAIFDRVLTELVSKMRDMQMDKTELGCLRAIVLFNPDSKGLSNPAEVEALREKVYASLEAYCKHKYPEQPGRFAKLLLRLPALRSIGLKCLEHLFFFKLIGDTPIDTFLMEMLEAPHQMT
T4 sequence (Q96RI1 whole entry): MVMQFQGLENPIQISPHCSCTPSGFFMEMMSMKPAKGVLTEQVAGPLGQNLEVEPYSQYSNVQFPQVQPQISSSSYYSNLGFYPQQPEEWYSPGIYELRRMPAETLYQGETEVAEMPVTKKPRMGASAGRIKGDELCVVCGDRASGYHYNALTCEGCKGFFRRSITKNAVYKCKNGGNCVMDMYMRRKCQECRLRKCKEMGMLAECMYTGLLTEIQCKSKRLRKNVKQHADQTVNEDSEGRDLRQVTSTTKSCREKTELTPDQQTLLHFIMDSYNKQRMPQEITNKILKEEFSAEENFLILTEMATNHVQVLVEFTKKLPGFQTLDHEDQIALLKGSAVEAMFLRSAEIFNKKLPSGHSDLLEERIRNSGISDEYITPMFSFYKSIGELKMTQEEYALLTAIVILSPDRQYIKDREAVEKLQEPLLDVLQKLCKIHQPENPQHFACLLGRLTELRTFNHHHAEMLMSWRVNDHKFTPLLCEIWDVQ

[5] = EC50 [μM] PPARα, HEK293T, n = 3
[6] = HEK293T, n = 3, read-out: EC50 [μM] PPARδ
[7] = HEK293T, mean ± SEM, n = 3, read-out: EC50 [μM] PPARγ
[8] = HeLa, n = 3, read-out: EC50 [μM] FXR
[9] = EC50 [μM] PPARδ, HEK293T, n = 3
[10] = PPAR EC50 [M], Supplementary Table 1, chromene derivatives, n ≥ 2
[11] = Supplementary Table 1, chromene derivatives, n ≥ 2, read-out: PPAR EC50
[12] = Supplementary Table 1, chromene derivatives, mean ± SEM, n ≥ 2, read-out: PPAR EC50
[13] = Supplementary Table 1, chromene derivatives, n ≥ 2, read-out: FXR EC50

Row | Structure (SMILES) | EC50 [1, 5] | EC50 [2, 6] | EC50 [3, 7] | Emax ([4]; HeLa) | EC50 [4, 8] | Emax ([1]; read-out: max. rel. act. PPARα) | EC50 [3] | Emax ([3]; read-out: max. rel. act. PPARγ) | EC50 [2, 9] | Emax ([2]; read-out: max. rel. act. PPARδ) | EC50 [1, 10] | Emax ([1]; read-out: PPAR max. rel. act.) | EC50 [2, 11] | Emax ([2]; read-out: PPAR max. rel. act.) | EC50 [3, 12] | Emax ([3]; read-out: PPAR max. rel. act.) | EC50 [4, 13] | FXR max. rel. act. ([4]; n ≥ 2) | preference over PPARγ ([3]; triple FXR/PPARα/δ potency versus PPARγ)
1 | O=C(O)CCc1ccc(NC(=O)c2ccccc2NC(=O)c2ccc3ccccc3c2)cc1 [compound 12] | > 30 µM | > 30 µM | > 30 µM | 21 ± 10% | 2.1 ± 0.1 µM |  |  |  |  |  |  |  |  |  |  |  |  |  | 
2 | O=C(O)CCc1cccc(NC(=O)c2ccccc2NC(=O)c2ccc(-c3ccoc3)cc2)c1 [compound 32] | 1.6 ± 0.3 µM |  |  | 20% | 0.23 ± 0.01 µM | 31% | 4.2 ± 0.9 µM | 38% |  |  |  |  |  |  |  |  |  |  | 
3 | O=C(O)CCc1cccc(NC(=O)c2ccc(Cl)cc2NC(=O)c2ccc3ccccc3c2)c1 [compound 20] | 3 ± 0.1 µM |  |  |  | > 10 µM | 16% | 1.4 ± 0.1 µM | 6% | 1.9 ± 0.2 µM | 16% |  |  |  |  |  |  |  |  | 
4 | Cc1cccc(C(=O)Nc2cccc(CCC(=O)O)c2)c1NC(=O)c1ccc2ccccc2c1 [compound 16] | 6.2 ± 0.1 µM |  |  |  | > 10 µM | 31% | 7.1 ± 1.3 µM | 6% | 2.7 ± 0.3 µM | 30% |  |  |  |  |  |  |  |  | 
5 | COc1ccc(NC(=O)c2ccc3ccccc3c2)c(C(=O)Nc2cccc(CCC(=O)O)c2)c1 [compound 27] | 0.23 ± 0.04 µM |  |  |  | > 10 µM | 53% | 2 ± 0.1 µM | 15% | 0.36 ± 0.01 µM | 23% |  |  |  |  |  |  |  |  | 
6 | O=C(O)CCc1cccc(NC(=O)c2ccccc2NC(=O)c2ccc(-n3ccnn3)cc2)c1 [compound 39] | > 10 µM | > 10 µM | > 30 µM |  | > 10 µM |  |  |  |  |  |  |  |  |  |  |  |  |  | 
7 | O=C(O)CCc1cccc(NC(=O)c2ccccc2NC(=O)C2=C(Cl)c3ccccc3OC2)c1 [S2, 3-(3-[2-{4-Chloro-2H-chromene-3-carboxamido}benzamido]phenyl)propanoic acid] |  |  |  |  |  |  |  |  |  |  | 0.46 ± 0.03 µM | 31 ± 1% | 0.42 ± 0.01 µM | 31 ± 1% | 2.3 ± 0.1 µM | 9 ± 0.1% | 11 ± 1 µM | 16 ± 1% | 
8 | CC(C)(C)c1ccc(C(=O)Nc2cccc(CCC(=O)O)c2)c(NC(=O)c2ccc3ccccc3c2)c1 [compound 24] | 0.31 ± 0.08 µM |  |  |  |  | 63% | 1.5 ± 0.1 µM | 20% |  |  |  |  |  |  |  |  |  |  | approximately fivefold preference over PPARγ
9 | O=C(O)CCc1cccc(NC(=O)c2ccccc2NC(=O)c2ccc3ccccc3c2)c1 [compound 9] | 1 ± 0.2 µM |  |  | 20% | 2.6 ± 0.3 µM | 31% | 2.6 ± 0.3 µM | 19% | 0.65 ± 0.03 µM | 28% |  |  |  |  |  |  |  |  | 
10 | Cc1ccc2c(c1)OCC(C(=O)Nc1ccccc1C(=O)Nc1cccc(CCC(=O)O)c1)=C2 [S7] |  |  |  |  |  |  |  |  |  |  | 3.4 ± 0.1 µM | 38 ± 1% | 1.1 ± 0.1 µM | 30 ± 1% | 5 ± 1.6 µM | 7.9 ± 1.4% | > 10 µM |  | 
11 | COc1cccc2c1OCC(C(=O)Nc1ccccc1C(=O)Nc1cccc(CCC(=O)O)c1)=C2 [S10] |  |  |  |  |  |  |  |  |  |  | 6.6 ± 1.8 µM | 26 ± 5% | 5.2 ± 0.2 µM | 30 ± 1% | 23 ± 2 µM | 8.6 ± 0.6% | 2.8 ± 0.3 µM | 14 ± 1% | 
12 | O=C(O)CCc1cccc(NC(=O)c2cc(OC(F)(F)F)ccc2NC(=O)c2ccc3ccccc3c2)c1 [compound 28] | 0.21 ± 0.02 µM |  |  |  | > 10 µM | 54% | 1.1 ± 0.2 µM | 18% | 0.1 ± 0.01 µM | 19% |  |  |  |  |  |  |  |  | 
13 | O=C(O)CCc1cccc(NC(=O)c2cc3c(cc2NC(=O)c2ccc4ccccc4c2)OCO3)c1 [compound 29] | 0.46 ± 0.03 µM |  |  | 14% | 2.9 ± 0.6 µM | 25% | 0.9 ± 0.3 µM | 15% | 0.4 ± 0.1 µM | 31% |  |  |  |  |  |  |  |  | 
14 | Cc1ccc2c(c1)C=C(C(=O)Nc1ccccc1C(=O)Nc1cccc(CCC(=O)O)c1)CO2 [S4, 3-(3-[2-{6-Methyl-2H-chromene-3-carboxamido}benzamido]phenyl)propanoic acid] |  |  |  |  |  |  |  |  |  |  | 0.84 ± 0.1 µM | 29 ± 1% | 1.5 ± 0.2 µM | 16 ± 1% | 5 ± 1.6 µM | 36 ± 8% | 5.4 ± 0.1 µM | 12 ± 1% | 
